Test results from patent US4060603A, “Histidine derivatives” (Reckitt & Colman Products Limited, priority 1975, dated 1977).

Test system: reserpine induced hypothermia
Assay: reversal of reserpine induced hypothermia test in mice
Assay type: in vivo

## C[C@H]1CCN(C(=O)[C@H](Cc2c[nH]cn2)NC(=O)[C@@H]2CCC(=O)N2)[C@@H]1C(N)=O [Example 1, L-Pyroglutamyl-L-histidyl-trans-3-methyl-L-prolineamide]
Fully reserpinised mice, over 4 hours, P < 0.05, Mann Whitney U test
  calorigenic effect in reversal of reserpine induced hypothermia: significant
mice, doses 1-30 mg/Kg p.o.
  potency relative to TRH (times more potent): 3-4 time
